Data as given in the supplement of paper PMC10307832.

How the values were obtained:
Assay in all cases: relative viability (nuclei count vs DMSO), 5 days (fraction); higher = more cells survive
[1] = compound: N#CC[C@H](C1CCCC1)n1cc(-c2ncnc3[nH]ccc23)cn1 [Ruxolitinib] + Cc1nc(Nc2ncc(C(=O)Nc3c(C)cccc3Cl)s2)cc(N2CCN(CCO)CC2)n1 [Dasatinib] (partner 0.075 µM)
How it was run: (§1)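 Relative viability is defined as nuclei in treated wells over nuclei in vehicle wells. Duplicate plates were run and medians reported. Lung cancer cell lines in 1536-well plates were dosed by pin tool one day after seeding, with one drug or with a fixed anchor-drug dose plus five library-drug doses (not always all listed) in √10 steps, and nuclei were counted after 5 days.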

[2] = compound: CS(=O)(=O)c1ccc(C(=O)Nc2ccc(Cl)c(-c3ccccn3)c2)c(Cl)c1 [Vismodegib] + O=C(CCCCCCC(=O)Nc1ccccc1)NO [Vorinostat] (partner 1 µM)
How it was run: as §1

[3] = compound: CS(=O)(=O)c1ccc(-c2cnc(N)c(C(=O)Nc3ccccc3)n2)cc1 [VE-821] + Cc1nc(NC(=O)N2CCC[C@H]2C(N)=O)sc1-c1ccnc(C(C)(C)C(F)(F)F)c1 [Alpelisib] (partner 2 µM)
How it was run: as §1

[4] = compound: CS(=O)(=O)c1ccc(C(=O)Nc2ccc(Cl)c(-c3ccccn3)c2)c(Cl)c1 [Vismodegib] + CC(=O)Nc1cccc(-n2c(=O)n(C3CC3)c(=O)c3c(Nc4ccc(I)cc4F)n(C)c(=O)c(C)c32)c1 [Trametinib] (partner 0.02 µM)
How it was run: as §1

| Cell Line | relative viability ([1]; first compound 0.08 µM) | relative viability ([1]; first compound 0.253 µM) | relative viability ([1]; first compound 0.8 µM) | relative viability ([1]; first compound 2.53 µM) | relative viability ([1]; first compound 8 µM) | relative viability ([2]; first compound 0.08 µM) | relative viability ([2]; first compound 0.253 µM) | relative viability ([2]; first compound 0.8 µM) | relative viability ([2]; first compound 2.53 µM) | relative viability ([2]; first compound 8 µM) | relative viability ([3]; first compound 0.08 µM) | relative viability ([3]; first compound 0.253 µM) | relative viability ([3]; first compound 0.8 µM) | relative viability ([3]; first compound 2.53 µM) | relative viability ([3]; first compound 8 µM) | relative viability ([4]; first compound 0.08 µM) | relative viability ([4]; first compound 0.253 µM) | relative viability ([4]; first compound 0.8 µM) | relative viability ([4]; first compound 2.53 µM) | relative viability ([4]; first compound 8 µM) |
| --- | --- | --- | --- | --- | --- | --- | --- | --- | --- | --- | --- | --- | --- | --- | --- | --- | --- | --- | --- | --- |
| NCI-H1915 | 0.33 | 0.305 | 0.319 | 0.217 | 0.204 | 0.491 | 0.488 | 0.497 | 0.434 | 0.534 | 1.13 | 1.03 | 1.06 | 1.16 | 0.941 | 0.295 | 0.282 | 0.303 | 0.303 | 0.335 |
| SK-MES-1 | 0.313 | 0.372 | 0.315 | 0.199 | 0.285 | 1.11 | 0.981 | 1.07 | 0.973 | 1.06 | 1.03 | 0.847 | 0.776 | 0.954 | 0.866 | 0.574 | 0.504 | 0.553 | 0.558 | 0.545 |
| NCI-H522 | 0.751 | 1.03 | 0.916 | 0.919 | 0.731 | 1.02 | 0.886 | 0.808 | 0.941 | 0.806 | – | – | – | – | – | 0.797 | 0.763 | 0.639 | 0.609 | 0.669 |
| NCI-H1299 | – | – | – | – | – | – | – | – | – | – | 1.09 | 1.04 | 1.12 | 1.09 | 1.07 | – | – | – | – | – |
| NCI-H1651 | 0.323 | 0.37 | 0.389 | 0.337 | 0.29 | 0.581 | 0.582 | 0.547 | 0.49 | 0.503 | 1.09 | 1.08 | 0.702 | 1.01 | 0.849 | 0.813 | 0.822 | 0.81 | 0.815 | 0.84 |
| NCI-H661 | 0.964 | 0.872 | 1.03 | 0.695 | 0.498 | 0.785 | 0.768 | 0.841 | 0.737 | 0.763 | 0.693 | 0.705 | 0.573 | 0.765 | 0.559 | 0.549 | 0.611 | 0.649 | 0.558 | 0.622 |
| NCI-H1944 | 0.204 | 0.17 | 0.209 | 0.168 | 0.167 | 0.592 | 0.522 | 0.735 | – | 0.568 | 0.954 | 0.804 | 0.53 | 0.885 | 0.452 | 0.386 | 0.395 | 0.425 | – | 0.399 |
| NCI-H2228 | 0.399 | 0.457 | 0.484 | 0.401 | 0.198 | 1.03 | 0.719 | 0.589 | 0.751 | 0.574 | 0.7 | 0.825 | 0.683 | 0.687 | 0.737 | 0.368 | 0.42 | 0.484 | 0.417 | 0.585 |
| NCI-H1792 | 0.664 | 0.664 | 0.675 | 0.541 | 0.466 | – | – | – | – | – | 0.846 | 0.919 | 0.584 | 0.587 | 0.681 | 0.392 | 0.447 | 0.361 | 0.376 | 0.398 |
| HCC-44 | – | – | – | – | – | 1.21 | 1.02 | 1.1 | 1.08 | 1.11 | 0.83 | 0.807 | 0.717 | 1.03 | 0.885 | 1.11 | 1.05 | 1.05 | 1.04 | 0.976 |
| NCI-H358 | 0.189 | 0.131 | 0.175 | 0.135 | 0.164 | 0.831 | 0.677 | 0.696 | 0.68 | 0.728 | 1.04 | 0.999 | 0.904 | 0.838 | 0.605 | 0.151 | 0.139 | 0.14 | 0.128 | 0.139 |
| NCI-H596 | 0.581 | 0.654 | 0.585 | 0.575 | 0.496 | 0.682 | 0.65 | 0.609 | 0.486 | 0.642 | 0.486 | 0.458 | 0.39 | 0.511 | 0.413 | 0.746 | 0.82 | 0.744 | 0.779 | 0.896 |
| EBC-1 | – | – | – | – | – | – | – | – | – | – | 0.888 | 0.75 | 0.742 | 0.779 | 0.683 | – | – | – | – | – |
| ChaGo-K-1 | 0.631 | 0.573 | 0.548 | 0.548 | 0.403 | 0.761 | 0.739 | 0.799 | 0.754 | 0.708 | – | – | – | – | – | 0.849 | 0.904 | 0.919 | 0.781 | 0.796 |
| NCI-H2342 | 0.315 | 0.299 | 0.341 | 0.31 | 0.319 | 0.747 | 0.597 | 0.805 | 0.735 | 0.652 | – | – | – | – | – | 1.02 | 0.738 | 0.843 | 0.764 | 0.728 |
| Calu-6 | – | – | – | – | – | – | – | – | – | – | 0.988 | 0.896 | 0.939 | 0.972 | 0.66 | – | – | – | – | – |
| NCI-H1703 | – | – | – | – | – | – | – | – | – | – | 0.379 | 0.253 | 0.279 | 0.343 | 0.233 | – | – | – | – | – |
| NCI-H1563 | 0.446 | 0.481 | 0.452 | 0.43 | 0.402 | – | – | – | – | – | 0.896 | 0.933 | 0.739 | 0.805 | 0.797 | – | – | – | – | – |
| NCI-H1623 | 0.591 | 0.512 | 0.488 | 0.699 | 0.474 | – | – | – | – | – | – | – | – | – | – | – | – | – | – | – |
| IA-LM | – | – | – | – | – | 0.735 | 0.951 | 0.843 | 0.947 | 1.03 | 0.905 | 0.475 | 0.797 | 1.04 | 0.738 | – | – | – | – | – |
| SW 900 | 0.675 | 0.487 | 0.542 | 0.403 | 0.489 | 0.457 | 0.415 | 0.435 | – | 0.602 | – | – | – | – | – | 0.801 | 0.73 | 1.1 | – | 0.921 |
| ABC-1 | – | 0.53 | 0.547 | 0.64 | 0.45 | 1.55 | 0.987 | 0.873 | 1.23 | 1.24 | 1.21 | 0.854 | 0.91 | 1.03 | 0.904 | – | – | – | – | – |
| NCI-H1648 | – | – | – | – | – | 0.607 | 0.757 | 0.389 | 0.465 | 0.512 | – | – | – | – | – | 0.38 | 0.48 | 0.383 | 0.49 | 0.535 |
| A549 | – | – | – | – | – | – | – | – | – | – | 0.995 | 0.746 | 0.624 | 0.872 | 0.548 | – | – | – | – | – |
